Experimental data taken from patent publication US20210349099A1, “CANCER BIOMARKERS AND METHODS OF USE THEREOF” (X4 Pharmaceuticals, Inc., priority 2017, published 2021).

Experiments:
in vivo = assay: in vivo
Experimental: In certain embodiments, the dosage composition may be provided twice a day in divided dosage, approximately 12 hours apart. In other embodiments, the dosage composition may be provided once daily. […] Dosage for oral administration may be from about 100 mg to about 1200 mg once or twice per day.

[1] = test system: metastatic melanoma human tumor sample; assay: Single-marker IHC of melanoma patient tumor samples (HALO); format: in vivo
Experimental: Single-marker IHC (CD8 and granzyme B) and multiplex IHC staining were analyzed using HALO™ spatial analysis tools, and the entire tumor area of each specimen was scored. (See Tunstall, “Quantifying Immune Cell Distribution in the Tumor Microenvironment Using HALO™ Spatial Analysis Tools,” Application Note, July […], (Indica Labs), accessed Nov. 1, 2017, on https://thepathologist.com/fileadmin/issues/App_Notes/0016-010-halo-app-note.pdf). See also Sherry et al., “Utilizing multiplex chromogenic IHC and digital image analysis to evaluate immune cell content and spatial distribution within NSCLC tumor tissue” Cancer Research (2017) 77(13) Supp: Abstract 2937. CD8 was measured using a mouse monoclonal antibody (DAKO catalog #M7103, lot #20029542). A Leica Bond RX Autostainer was used following standard protocols. For granzyme B, a mouse monoclonal antibody was used (DAKO #M7235). A Leica Bond RX Autostainer was used following standard protocols.
Single-marker IHC was also used to measure CD3, FoxP3, and Ki67. For CD3, a rabbit polyclonal antibody was used (DAKO catalog #A0452, lot #20020069). A Leica Bond RX Autostainer was used following standard protocols. For FoxP3, a mouse monoclonal antibody was used (Abcam catalog #ab20034, lot #GR251424-1). A Leica Bond RX Autostainer was used following standard protocols. […]

[2] = test system: melanoma tumor microenvironment (TME); assay: Multiplex immunofluorescence (mIF) immunophenotyping of melanoma biopsies; format: in vivo, human; details: melanoma patient #5
Experimental: (§1) Formalin-fixed paraffin-embedded (FFPE) tissue sections were baked for 1 hour at 60° C. The slides were dewaxed and stained on a Leica BOND Rx stainer (Leica, Buffalo Grove, Ill.) using Leica Bond reagents for dewaxing (Dewax Solution), antigen retrieval and antibody stripping (Epitope Retrieval Solution 2), and rinsing after each step (Bond Wash Solution). A high stringency wash was performed after the secondary and tertiary applications using high-salt TBST solution (0.05 M Tris, 0.3M NaCl, and 0.1% Tween-20, pH 7.2-7.6). OPAL Polymer HRP Mouse plus Rabbit (PerkinElmer, Hopkington, Mass.) was used for all secondary applications.
Antigen retrieval and antibody stripping steps were performed at 100° C. with all other steps at ambient temperature. Endogenous peroxidase was blocked with 3% H2O2 for 8 minutes followed by protein blocking with TCT buffer (0.05 M Tris, 0.15 M NaCl, 0.25% Casein, 0.1% Tween 20, pH 7.6+/−0.1) for 30 minutes. The first primary antibody (position 1) was applied for 60 minutes followed by the secondary antibody application for 10 minutes and the application of the tertiary TSA-amplification reagent (PerkinElmer OPAL fluor) for 10 minutes. The primary and secondary antibodies were stripped with retrieval solution for 20 minutes before repeating the process with the second primary antibody (position 2) starting with a new application of 3% H2O2. The process was repeated until all 6 positions were completed; however, there was no stripping step after the 6th position. Slides were removed from the stainer and stained with Spectral DAPI (Perkin Elmer) for 5 minutes, rinsed for 5 minutes, and coverslipped with Prolong Gold Antifade reagent (Invitrogen/Life Technologies, Grand Island, N.Y.).
Slides were cured for 24 hours at room temperature, then representative images from each slide were acquired on PerkinElmer Vectra 3.0 Automated Imaging System. Images were spectrally unmixed using PerkinElmer inForm software and exported as multi-image TIFF's for analysis in HALO software (Indica Labs, Corrales, N. Mex.).
Cellular analysis of the images were then analyzed with HALO image analysis software (Indica Labs, Cooales, N. Mex.). After the cells were visualized based on nuclear recognition (DAPI stain), the software measured fluorescence intensity of the estimated cytoplasmic areas of each cell. A mean intensity threshold above background was used to determine positivity for each fluorochrome within the cytoplasm, thereby, defining cells as either positive or negative for each marker. The positive cell data was then used to define colocalized populations and to perform nearest neighbor spatial analysis.
Formalin-fixed paraffin-embedded melanoma samples were stained sequentially with a 6-component immunophenotyping antibody panel, including CD4, CD8, PD-1, PD-L1, macrophage cocktail (CD68+CD163), and FoxP3 (Tregs). DAPI was used as a nuclear counterstain. Antibodies were detected using HRP-catalyzed deposition of fluorescent tyramide substrates (Opal, Perkin-Elmer). Images were obtained using spectral imaging, autofluorescence subtraction and unmixing (Vectra 3.0, Perkin-Elmer), and analyzed using HALO™ image analysis software.
as §1, with “Tumor samples obtained from melanoma patients were formalin-fixed and” for “Formalin-fixed”, “(FFPE) according to known procedures. FFPE” for “(FFPE)”, “OPAL Polymer HRP Mouse plus Rabbit (PerkinElmer, Hopkington, Mass.) was used for all secondary applications.” left out

melanoma tumor interface = assay: Multiplex IHC and HALO count of CD8+ cells at the tumor interface; format: in vivo, human
Experimental: CD8-labeled cells within […] of the inside or outside of the tumor boundary with normal tissue were counted. The number of CD8^+ cells/mm^2 was plotted against distance from the boundary in […] bands.

[3] = Phase 1 and 2a trials; cited from earlier work
[4] = test system: melanoma, renal cell carcinoma, and ovarian cancer; details: murine models; cited from earlier work

NCCCCN(Cc1nc2ccccc2[nH]1)[C@H]1CCCc2cccnc21 [X4P-001]
terminal half-life (in vivo): approximately 14.5 hrs | half-life (in vivo; terminal half-life): 12 to 24 h | CD8 expression ([1]; patient #5, post-dosing vs pre-dosing): visibly increased | CD8+ T cells density in tumor microenvironment ([1]; patient #5, post-dosing, pre-dosing 1045): 1370 per square millimeter | percentage of CD4 positive cells in the TME [2]: increased | percentage of CD8 positive cells in the TME [2]: increased | percentage of PD-1 positive cells in the TME [2]: increased | percentage of PDL-1 positive cells in the TME [2]: increased | percentage of Treg (FoxP3+) cells [2]: not altered | percentage of macrophages (CD68/CD163+) ([2]; printed 24.1% vs. 25.4%, not altered): 25.4% | CD8 Avg. Density (melanoma tumor interface; Week 4, Day 1 380.0449): 1550.5403 cells/mm^2 | CD8 Within Interface Area (melanoma tumor interface; Week 4, Day 1 5233): 7557 | CD8 Count (melanoma tumor interface; Week 4, Day 1 8924): 25894 | total density of CD8+ cells within the boundary area compared with baseline (melanoma tumor interface; after 3 weeks of monotherapy, within 100 μM of tumor boundary): increased four-fold | pharmacodynamic activity: circulating white blood cells (WBCs) [3]: dose- and concentration-related changes | volume of distribution (VL) [3]: high | anti-tumor activity [4]: significant anti-tumor activity, including decreased metastasis and increased overall survival
